Patent EP0452067A2, “Oligosaccharide compounds and preparation thereof” (GENZYME CORPORATION, priority 1990, dated 1991)

Assays:
[1] = test system: α-amylase; assay: Determination of kinetic and binding values of α-amylase substrates; format: biochemical; conditions: for Km: 50 mM PIPES pH 7.0, 50 mM NaCl, 5 mM CaCl₂, glucoamylase and maltase, 27°C, corrected for contaminating unblocked substrate
Procedure: All reactions were carried out in 50 mM PIPES buffer (pH 7.0) containing 50 mM NaCl, 5 mM CaCl₂, 10 units glucoamylase and 25 units maltase at 27°C. Each substrate concentration was run in duplicate and at least eight concentrations were examined for each substrate. Data from the reaction progress curves were fit to the Michaelis-Menten equation using Marquardt analysis. The Km values were corrected for contaminating unblocked substrate. The values V and K for the G₇ substrates are the average of two experiments. The error in the kinetic parameters from each experiment was less than 5% from the average reported.

[2] = test system: pancreatic and salivary α-amylase; assay: Cleavage pattern, both amylases; format: biochemical; conditions: range over pancreatic and salivary α-amylase
[3] = target: T1, Pancreatic Amylase (Homo sapiens, UniProt P04746); assay: Cleavage pattern of substrates on hydrolysis with pancreatic amylase
T1 sequence (P04746 16-511): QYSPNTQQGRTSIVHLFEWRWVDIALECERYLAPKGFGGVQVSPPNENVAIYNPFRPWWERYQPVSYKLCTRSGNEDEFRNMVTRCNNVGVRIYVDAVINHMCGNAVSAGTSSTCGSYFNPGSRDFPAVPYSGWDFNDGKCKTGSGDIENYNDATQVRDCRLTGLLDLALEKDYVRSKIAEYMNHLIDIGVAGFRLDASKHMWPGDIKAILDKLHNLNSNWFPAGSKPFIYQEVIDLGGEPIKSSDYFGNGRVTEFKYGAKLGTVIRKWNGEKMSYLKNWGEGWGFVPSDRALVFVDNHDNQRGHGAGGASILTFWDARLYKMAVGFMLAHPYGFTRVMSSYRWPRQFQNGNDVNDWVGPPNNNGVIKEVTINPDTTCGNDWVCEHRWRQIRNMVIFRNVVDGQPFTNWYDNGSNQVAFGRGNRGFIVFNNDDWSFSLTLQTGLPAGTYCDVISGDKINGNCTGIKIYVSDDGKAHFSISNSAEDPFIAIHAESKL

CC(C)(C)[Si](C)(C)OC[C@H]1O[C@H](O[C@H]2[C@H](O)[C@@H](O)[C@@H](O[C@H]3[C@H](O)[C@@H](O)[C@@H](O[C@H]4[C@H](O)[C@@H](O)[C@@H](O[C@H]5[C@H](O)[C@@H](O)[C@@H](O[C@H]6[C@H](O)[C@@H](O)[C@@H](O[C@H]7[C@H](O)[C@@H](O)[C@@H](Oc8ccc([N+](=O)[O-])cc8)O[C@@H]7CO)O[C@@H]6CO)O[C@@H]5CO)O[C@@H]4CO)O[C@@H]3CO)O[C@@H]2CO)[C@H](O)[C@@H](O)[C@@H]1O [Substrate 1, 6-0-t-butyldimethylsilyl-4-nitrophenyl-α-D-maltoheptaoside]
Vmax, faster than the Bz-G₇-PNP ([1]; relative to Bz-G₇-PNP): 46% | cleaved between glucoses 3 and 4 [2]: 66 - 67% | Cleavage Position (% of total) G 1/2 [3]: 1.1 % of total | Cleavage Position (% of total) G 2/3 [3]: 13.3 % of total | Cleavage Position (% of total) G 3/4 [3]: 65.6 % of total | Cleavage Position (% of total) G 4/5 [3]: 19.9 % of total | Total Hydrolysis (%) [3]: 69.9%

O=[N+]([O-])c1ccc(O[C@H]2O[C@H](CO)[C@@H](O[C@H]3O[C@H](CO)[C@@H](O[C@H]4O[C@H](CO)[C@@H](O[C@H]5O[C@H](CO)[C@@H](O[C@H]6O[C@H](CO)[C@@H](O[C@H]7O[C@H](CO)[C@@H](O[C@H]8O[C@@H]9COC(c%10ccccc%10)O[C@H]9[C@H](O)[C@H]8O)[C@H](O)[C@H]7O)[C@H](O)[C@H]6O)[C@H](O)[C@H]5O)[C@H](O)[C@H]4O)[C@H](O)[C@H]3O)[C@H](O)[C@H]2O)cc1 (stereo partly drawn) [Substrate 2, 4,6-0-benzylidene-4-nitrophenyl-α-D-maltoheptaoside]
Km [1]: 92 µM | cleaved between glucoses 2 and 3 [2]: 63 - 74% | Cleavage Position (% of total) G 1/2 [3]: 4.0 % of total | Cleavage Position (% of total) G 2/3 [3]: 63.1 % of total | Cleavage Position (% of total) G 3/4 [3]: 18.9 % of total | Cleavage Position (% of total) G 5/6 [3]: 13.6 % of total | Total Hydrolysis (%) [3]: 15.1%

CC(C)(C)[Si](C)(C)OC[C@H]1O[C@H](O[C@H]2[C@H](O)[C@@H](O)[C@@H](O[C@H]3[C@H](O)[C@@H](O)[C@@H](O[C@H]4[C@H](O)[C@@H](O)[C@@H](O[C@H]5[C@H](O)[C@@H](O)[C@@H](Oc6ccc([N+](=O)[O-])cc6)O[C@@H]5CO)O[C@@H]4CO)O[C@@H]3CO)O[C@@H]2CO)[C@H](O)[C@@H](O)[C@@H]1O [Substrate 3, 6-0-t-butyldimethylsilyl-4-nitrophenyl-α-D-maltopentaoside]
Km [1]: 87 µM | V/K greater than that of the Bz-G₅-PNP ([1]; relative to Bz-G₅-PNP): 19% | cleaved between glucose units 1-2 [2]: 40 - 60% | cleaved between glucoses 2 and 3 [2]: 40 - 60% | Cleavage Position (% of total) G 1/2 [3]: 59.4 % of total | Cleavage Position (% of total) G 2/3 [3]: 40.6 % of total | Total Hydrolysis (%) [3]: 31.6%

O=[N+]([O-])c1ccc(O[C@H]2O[C@H](CO)[C@@H](O[C@H]3O[C@H](CO)[C@@H](O[C@H]4O[C@H](CO)[C@@H](O[C@H]5O[C@H](CO)[C@@H](O[C@H]6O[C@@H]7COC(c8ccccc8)O[C@H]7[C@H](O)[C@H]6O)[C@H](O)[C@H]5O)[C@H](O)[C@H]4O)[C@H](O)[C@H]3O)[C@H](O)[C@H]2O)cc1 (stereo partly drawn) [Substrate 4, 4,6-0-benzylidene-4-nitrophenyl-α-D-maltopentaoside]
Km [1]: 183 µM | cleaved between glucoses 3 and 4 [2]: 78 - 84% | Cleavage Position (% of total) G 1/2 [3]: 2.5 % of total | Cleavage Position (% of total) G 2/3 [3]: 19.4 % of total | Cleavage Position (% of total) G 3/4 [3]: 78.1 % of total | Total Hydrolysis (%) [3]: 42.9%
